Key:
Format in all cases: cell-based, Chinese Hamster
[1] = system: CHO perfusion cell culture; test: cells; conditions: for increase of the cell specific productivity: relative to cell culture without the additive; for cell growth (VCD) relative to normal perfusion media / specific productivity relative to normal perfusion media: each concentration (arachidonic acid 500 μM; PGE2 0.001, 10, 20, 60 μM), before day 6
Protocol: (§1) The below examples, unless specified otherwise, were carried out using the following generalized protocol and apparatus for perfusion cell culture. Two different formats of perfusion culture process were employed for the experiments described in the examples. One is executed in a bioreactor model and the other is in a deep-well plate model.
(§2) The deep-well plate model is carried out using 24 deep-well plates with an 8 day run duration. A starting cell density of 20e^6 cells/ml is targeted for deep well plate model work. The working volume per well is 3 ml and cells are grown at 33° C. with 5% CO2, 80% humidity, and 200 rpm in an incubator with a 5.0 cm orbit diameter. Medium exchanges are performed daily by centrifuging the plate at 1800 rpm for 5 mins, removing supernatant, and re-suspending the cells in fresh media at 70% volume per day (VVD) exchange rate. Further details of the setup is described by Lin et al. (Biotechnol. Prog., 2017, Vol. 33, No. 4).
In this example, the deep-well plate model is used.
Linoleic acid at various concentrations 500 μM, 900 μM, 1350 μM and 1800 μM was added to the cell culture media and the effects on (A) viable cell density (e^5 cells/nil), (B) percent (%) cell viability and (C) specific productivity (qp) were determined.
In this example, the deep-well plate model is used. This example analyzes the effect of arachidonic acid when added to perfusion medium.
The effect of arachidonic acid on (A) viable cell density (e^5 cells/nil), (B) percent (%) cell viability and (C) specific productivity (qp) of the cell culture was determined.
In this example, the deep-well plate model is used. This experiment analyzes the effect of prostaglandin E2 when added to perfusion medium.
At each concentration, the VCD and specific productivity (i.e., specific titer), the growth was suppressed cell growth and the specific productivity was increased before day 6 relative to the cell culture in normal perfusion media.

[2] = system: CHO perfusion cell culture; test: Deep-well plate perfusion cell culture model, arachidonic acid added to k-pop (high potassium) perfusion medium; conditions: 150 μM to 500 μM in medium with about 34 mM sodium and 94 mM potassium; beyond the effect of high potassium alone
Protocol: as §1
as §2, with “4). […]” for “4).”
The effect of concentrations of arachidonic acid added at 150 μM, 300 μM and 500 μM to a cell culture media having a sodium concentration of approximately 34 mM and a preexisting high potassium concentration of approximately 94 mM, i.e., a low sodium-to-potassium ratio of about 0.4, was determined with respect to (A) viable cell density (e^5 cells/nil), (B) percent (%) cell viability and (C) specific productivity (qp) was determined.

[3] = system: CHO perfusion cell culture; test: Deep-well plate perfusion cell culture model, acetylsalicylic acid (ASA) in perfusion media with 500 μM arachidonic acid
Protocol: as §1, §2
In this example, the deep-well plate model is used. ASA is an inhibitor of COX-1 and COX-2, which are the metabolic enzymes which convert arachidonic acid to synthesize prostaglandin E2 (See FIG. 2). This experiment therefore analyses the effect of acetylsalicylic acid (ASA) when added to perfusion medium.
The data provide evidence that prostaglandin E2 is effective in triggering cell growth suppression and in increasing cell specific productivity.

[4] = 500 μM added in the normal perfusion media (Example 3, FIG. 4)
[5] = Cricetulus griseus, read-out: decrease of the VCD (viable cell density)
[6] = ASA in perfusion media with 500 μM arachidonic acid
[7] = added to perfusion medium, 500-1800 μM (Example 2, FIG. 3)

CCCCC/C=C\C/C=C\C/C=C\C/C=C\CCCC(=O)O [arachidonic acid]
increase of cell specific productivity (qp) [1, 4]: ≥ 46%
suppression of cell growth [1, 4]: up to 31%
increase of the cell specific productivity ([1]; 500 μM in growth medium): up to 52%
cytotoxicity at 500 µM [1, 5]: 15 to 36%
cell growth (VCD) relative to normal perfusion media [1]: suppressed
specific productivity relative to normal perfusion media [1]: increased
cell growth [2]: decreases cell growth
cell specific productivity [2]: improves cell specific productivity
suppressing cell growth and increasing productivity ([3]; 500 μM arachidonic acid when COX-1 and COX-2 are inhibited by ASA): no effect

CC(=O)Oc1ccccc1C(=O)O [ASA, acetylsalicylic acid]
specific productivity compared with normal perfusion medium [3, 6]: same effect
viable cell density compared with normal perfusion medium [3, 6]: higher

CCCCC/C=C\C/C=C\CCCCCCCC(=O)O [linoleic acid]
increase of the cell specific productivity ([1]; 500 μM in growth medium): up to 10%
increase of the cell specific productivity ([1]; 900 μM in growth medium): up to 14%
increase of the cell specific productivity ([1]; 1350 μM in growth medium): up to 14%
increase of the cell specific productivity ([1]; 1800 μM in growth medium): up to 30%
viable cell density, viability and specific productivity relative to the normal perfusion media ([1]; 1800 μM, similar to arachidonic acid at 500 μM): most significant difference
cell specific productivity relative to normal perfusion media ([1]; 500, 900 and 1350 μM, day 7, about the same at the three concentrations): significantly increased
cytotoxicity at 500 µM [1, 5]: 6 to 10%
cytotoxicity at 900 µM [1, 5]: 11 to 14%
cytotoxicity at 1350 µM [1, 5]: 11 to 25%
cytotoxicity at 1800 µM [1, 5]: 23 to 39.8%
cell growth [1, 7]: suppresses cell growth
cell specific productivity (qp) [1, 7]: increases cell specific productivity

CCCCC[C@H](O)/C=C/[C@H]1[C@H](O)CC(=O)[C@@H]1C/C=C\CCCC(=O)O [prostaglandin E2]
increase of the cell specific productivity ([1]; 0.001 μM in growth medium): up to 13.5%
increase of the cell specific productivity ([1]; 10 μM in growth medium): up to 34.4%
increase of the cell specific productivity ([1]; 20 μM in growth medium): up to 31%
increase of the cell specific productivity ([1]; 60 μM in growth medium): up to 31%
cell growth (VCD) relative to normal perfusion media [1]: suppressed
specific productivity relative to normal perfusion media [1]: increased

From patent US20200332251A1, “PERFUSION MEDIUM” (Boehringer Ingelheim International GmbH, priority 2017, published 2020)
